In US10434111B2, “Compositions and methods for modification of biomolecules” (THE REGENTS OF THE UNIVERSITY OF CALIFORNIA, priority 2004, dated 2019):
Values belong to the compound of their own block, whether it stands above or below them.

Experiments:
[1] = Kinetic evaluation of [3+2] cycloaddition of cyclooctyne probes with benzyl azide (1H NMR); assay type: physicochemical; conditions: PhCH2N3, CD3CN, 22° C.
Procedure: (§1) Stock solutions of cyclooctynes 3a and 3b (50 mM), benzyl azide (500 mM) and 2-azidoethanol (500 mM) were made in either CD3CN or a 55:45 mixture of CD3CN and deuterated Dulbecco's phosphate-buffered saline (pH 7.4, made with D2O). Gentle heating and/or sonication in a H2O bath was required to fully dissolve 3a and 3b. An NMR tube was charged with 450 μL of either 3a or 3b, and 50 μL of either benzyl azide or 2-azidoethanol, and the reaction was monitored over time using ^1H NMR spectroscopy.
(§2) In the case of the reactions of 3a and 3b with benzyl azide, the kinetic data were derived by monitoring the change in integration of resonances corresponding to the benzylic protons in benzyl azide (δ˜4.2 ppm) compared to the corresponding resonances of the triazole products (δ ˜5.0 to 5.5 ppm). […]
(§3) Second-order rate constants for the reaction were determined by plotting 1/[benzyl azide] versus time in the case of the reactions of 3a and 3b with benzyl azide and by plotting 1/[3a] versus time or 1/[3b] versus time in the case of the reactions of 3a and 3b with 2-azidoethanol, and subsequent analysis by linear regression. Second-order rate constants correspond to one half of the determined slope (Table 1). […]

[2] = Kinetic evaluation of [3+2] cycloaddition of cyclooctyne probes with 2-azidoethanol (1H NMR); assay type: physicochemical; conditions: HOCH2CH2N3, CD3CN/PBS (55:45), 22° C.
Procedure: as §1, §2, §3

[3] = Stability of cyclooctyne 3 to acid, base and biological nucleophiles; assay type: physicochemical
Procedure: [drawing 31] by Reese and Shaw. Reese and Shaw (1970) Chem. Comm. 1172-1173. Briefly, compound 1 (Skattebol and Solomon, supra) was treated with silver perchlorate to effect electrocyclic ring opening to the trans-allylic cation, which was captured with methyl hydroxymethylbenzoate to afford bromo-trans-cyclooctene 2. Base-mediated elimination of the vinyl bromide followed by saponification yielded versatile intermediate 3, to which any biological probe can be attached. Finally, compound 3 was coupled to biotin analog 4 (Wilbur et al. (1996) Bioconj. Chem. 7:689-702) bearing a PEG linker, providing target 5. Cyclooctyne 3 was stable to mild acid (0.5 N HCl for 30 min), base (0.8 M NaOMe for 30 min), and prolonged exposure to biological nucleophiles such as thiols (120 mM 2-mercaptoethanol for 12 h).

azide-labeled GlyCAM-Ig = target: T1, azide-labeled GlyCAM-Ig (Mus musculus, UniProt Q02596); assay: Western blot analysis of azide-labeled GlyCAM-Ig; assay type: biochemical; conditions: for labeling (biotinylation) of GlyCAM-Ig modified with SiaNAz: 250 μM probe alone, overnight at rt, no copper catalysis
T1 construct: made in house; host or cells: CHO cells grown with Ac4ManNAz
T1 sequence (Q02596 20-151): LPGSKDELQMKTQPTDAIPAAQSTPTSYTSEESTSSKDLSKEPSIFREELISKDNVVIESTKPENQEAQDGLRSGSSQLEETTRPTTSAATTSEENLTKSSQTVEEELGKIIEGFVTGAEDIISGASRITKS
Procedure: For Western blot analysis of azide-labeled and unlabeled GlyCAM-Ig, samples were incubated with 5 (250 μM final concentration in PBS, pH 7.4 containing 0.7% DMF), 6 (250 μM final concentration in PBS, pH 7.4 containing either 0.7% DMF) or left untreated for 12 h. To verify that 6 could react with azide-labeled GlyCAM-Ig via copper-mediated [3+2] cycloaddition, a modified version of the method reported by Speers and Cravatt was employed. Speers and Cravatt (2004) Chem. Biol. 11:535-46. Briefly, GlyCAM-Ig samples (in PBS, pH 7.4 containing 0.7% DMF) were incubated with 250 μM 6, 2.5 mM TCEP, 250 μM tris-triazolyl ligand (from a 1.7 mM stock in 1:4 DMSO:tert-butanol), and 2.5 mM CuSO4. Samples were vortexed and allowed to react at rt for 12 h. Prior to electrophoresis, samples were incubated with an equal volume of 100 mM 2-azidoethanol in 2×SDS-PAGE loading buffer for 8 h at rt (to quench unreacted 5 or 6). The quenched samples were boiled for 3 min and loaded onto precast polyacrylamide gels. After electrophoresis, the samples were electroblotted to nitrocellulose membrane. The membrane was blocked using 5% BSA in PBS (pH 7.4, containing 0.05% Tween 20 (blocking buffer A) for 1 h at rt, then incubated with a solution of blocking buffer A containing HRP-α-biotin (1:250,000 dilution, 1 h at rt). The membrane was washed, and detection of membrane-bound anti-biotin-HRP was accomplished by chemiluminescence. Following detection, the membrane was rinsed with PBS (pH 7.4) containing 0.05% Tween (PBS-T) and placed in stripping buffer (15 min at RT) to remove bound anti-biotin Ig. The membrane was thoroughly rinsed with PBS-T and probed for residual anti-biotin signal by chemiluminescence.
The membrane was washed and re-blocked with 5% low-fat dry powdered milk (blocking buffer B) for 1 h at rt. The membrane was then incubated with HRP-α-Ig (1:5000 in blocking buffer B) for 1 h at rt. The membrane was washed again with PBS-T, and detection of membrane bound anti-human Ig was accomplished as for peroxidase-conjugated anti-biotin. Control samples were treated in an identical manner, except that specific reagents were replaced by buffer where appropriate.
FIG. 2. Labeling of azide-modified GlyCAM-Ig with alkyne probes. Purified GlyCAM-Ig was treated with buffer (−), 250 μM 5, or 250 μM 6 alone or in the presence (cat) of CuSO4, TCEP, and a triazolyl ligand, overnight at rt. Reaction mixtures were quenched with 2-azidoethanol and analyzed by Western blot probing with HRP-α-biotin (upper panel). The blot was then stripped and reprobed with HRP-α-Ig (lower panel).

Jurkat cells [4] = assay: Cell surface azide labeling and detection, Jurkat cells, FITC-avidin flow cytometry; assay type: cell-based, human
Procedure: Jurkat cells were seeded at a density of 1.5-2.0×10^5 cells/mL and incubated for 3 d in untreated media or media containing various concentrations of Ac4ManNAz. […] Cells were then incubated with 5 or a biotinylated phosphine probe (Vocadlo et al. (2003) Proc. Natl. Acad. Sci. U.S.A. 100:9116-21) in labeling buffer containing 2.8% DMF or labeling buffer plus 2.8% DMF alone. […] Following a 10-min incubation on ice (in the dark), cells were washed with 200 μL of cold labeling buffer and the FITC-avidin staining procedure was repeated.
FIGS. 3A and 3B. Cell surface labeling with compound 5. Jurkat cells were incubated in the presence (+Az) or absence (−Az) of 25 μM Ac4ManNAz for 3 d. FIG. 3A. The cells were reacted with various concentrations of 5 for 1 h at rt and treated with FITC-avidin; mean fluorescence intensity (MFI) was determined by flow cytometry. FIG. 3B. The cells were incubated with 250 μM 5 for various durations at rt and analyzed as in A. C. The cells were incubated with 100 μM probe for 1 h at rt and analyzed as in A. Error bars represent the standard deviation from three replicates. AU=arbitrary fluorescence units.

Jurkat cells [5] = tested on: Jurkat cells

Structure (SMILES): O=C(O)c1ccc(CC2C#CCCCCC2)cc1 (stereo not drawn) [Compound 3a, 4-Cyclooct-2-ynylmethylbenzoic acid]
k, second-order rate constant for the [3 + 2] cycloaddition [1]: 0.0012 M⁻¹ s⁻¹
k, second-order rate constant for the [3 + 2] cycloaddition [2]: 0.0011 M⁻¹ s⁻¹

stability to biological nucleophiles such as thiols ([3]; 120 mM 2-mercaptoethanol for 12 h): stable
stability to mild acid ([3]; 0.5 N HCl for 30 min): stable
stability to base ([3]; 0.8 M NaOMe for 30 min): stable
Structure (SMILES): O=C(O)c1ccc(COC2C#CCCCCC2)cc1 (stereo not drawn) [Compound 3]

labeling (biotinylation) of GlyCAM-Ig modified with SiaNAz (azide-labeled GlyCAM-Ig; HRP-α-biotin blot): Robust biotinylation
labeling of native GlyCAM-Ig lacking azides (azide-labeled GlyCAM-Ig; 250 μM probe overnight, HRP-α-biotin blot): no background labeling
Structure (SMILES): O=C(CCCC[C@@H]1SC[C@@H]2NC(=O)N[C@@H]21)NCCCOCCOCCOCCCNC(=O)c1ccc(COC2C#CCCCCC2)cc1 (stereo partly drawn) [Compound 5]
dependence of cell surface reaction on incubation time (Jurkat cells [4]; Jurkat +Az, 250 μM probe for various durations at rt): dependent on duration of incubation
effects on cell viability (Jurkat cells [4]; Jurkat cells treated with probe): No negative effects
labeling of cells lacking azides (Jurkat cells [4]; Jurkat grown without Ac4ManNAz): No detectable labeling
fluorescence of cells displaying azides upon treatment with the cyclooctyne probe (Jurkat cells [4]; Jurkat, 25 μM Ac4ManNAz 3 d, various concentrations of probe, rt, FITC-avidin): dose-dependent increase in fluorescence

labeling (biotinylation) of GlyCAM-Ig modified with SiaNAz (azide-labeled GlyCAM-Ig; HRP-α-biotin blot): no glycoprotein labeling
labeling of the azide-modified glycoprotein with copper catalysis (azide-labeled GlyCAM-Ig; 250 μM probe plus CuSO4, TCEP and a triazolyl ligand): facile labeling
anti-IgG immunoreactivity of labeled azide-modified GlyCAM-Ig (azide-labeled GlyCAM-Ig; in the presence of copper, blot reprobed with HRP-α-IgG): consistently diminished
Structure (SMILES): C#CCCC(=O)NCCCOCCOCCOCCCNC(=O)CCCC[C@@H]1SC[C@@H]2NC(=O)N[C@@H]21 [Compound 6]

Structure (SMILES): O=C(CCCC[C@@H]1SC[C@@H]2NC(=O)N[C@@H]21)NCCCOCCOCCOCCCNC(=O)COC1CCC#CC(F)(F)CC1 (stereo partly drawn) [DIFO-biotin]
labeling of azide-containing membrane-associated glycans in live cells (Jurkat cells [5]; 0 or 25 μM Ac4ManNAz 3 days, probe 1 h, FITC-avidin): selectively label
sensitivity of azide detection compared to a nonfluorinated cyclooctyne or a phosphine capable of Staudinger ligation (Jurkat cells [5]; 100 μM probes, 1 h): much higher

Structure (SMILES): O=C(O)c1ccc(CC2(F)C#CCCCCC2)cc1 (stereo not drawn) [Compound 3b, 4-(1-Fluoro-cyclooct-2-ynylmethyl)benzoic acid]
k, second-order rate constant for the [3 + 2] cycloaddition [1]: 0.0042 M⁻¹ s⁻¹
k, second-order rate constant for the [3 + 2] cycloaddition [2]: 0.004 M⁻¹ s⁻¹
